The target of assay [1] is T1, D(2) dopamine receptor (Homo sapiens, UniProt P14416). The experiment in a line: Displacement of [3H]spiperone from human dopamine D2L receptor expressed in CHO cells. It counts as cell-based. (In general: Loss of bound radioactivity is the signal in a displacement assay; it reports binding, not function.)
The next assay concerns the target D(3) dopamine receptor (Homo sapiens, UniProt P35462). The experiment in a line: Displacement of [3H]spiperone from human dopamine D3 receptor expressed in CHO cells. It counts as cell-based.
The target in another assay is D(1B) dopamine receptor (Homo sapiens, UniProt P21918). Briefly: Displacement of [3H]SCH23390 from human dopamine D5 receptor expressed in HEK cells. It counts as cell-based, HEK293.
The target in another assay is D(1A) dopamine receptor (Homo sapiens, UniProt P21728). Briefly: Displacement of [3H]SCH23390 from human dopamine D1 receptor expressed in HEK cells. The assay is classed as cell-based, HEK293.
The next assay deals with T2, D(4) dopamine receptor (Homo sapiens, UniProt P21917).
T2 sequence (P21917 whole entry): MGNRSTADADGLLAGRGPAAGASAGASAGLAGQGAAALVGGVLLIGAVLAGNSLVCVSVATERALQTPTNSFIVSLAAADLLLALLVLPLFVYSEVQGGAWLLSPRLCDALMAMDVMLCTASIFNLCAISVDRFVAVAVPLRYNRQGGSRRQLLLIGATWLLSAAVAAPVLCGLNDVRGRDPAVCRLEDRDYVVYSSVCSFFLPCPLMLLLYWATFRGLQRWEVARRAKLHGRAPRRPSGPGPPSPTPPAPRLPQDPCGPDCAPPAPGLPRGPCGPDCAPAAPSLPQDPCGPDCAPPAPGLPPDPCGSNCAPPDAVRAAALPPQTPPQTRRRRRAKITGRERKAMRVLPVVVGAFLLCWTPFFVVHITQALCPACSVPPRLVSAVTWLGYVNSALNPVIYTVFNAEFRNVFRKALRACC
Briefly: Displacement of [3H]spiperone from human dopamine D4 receptor expressed in CHO cells. The assay is classed as cell-based.

Assay [2] concerns the target T1, D(2) dopamine receptor. The experiment in a line: Displacement of [3H]spiperone from human dopamine D2S receptor expressed in CHO cells. It counts as cell-based.
Assay [3] has as its target T1, D(2) dopamine receptor. Briefly: Antagonist activity at human D2S receptor transfected in HEK293T cells assessed as forskolin-induced cAMP accumulation by BRET assay. The assay is classed as functional, cell-based. As to conditions: HEK-293T.

Each structure is given as a SMILES string. Active and inactive are the calls of the source. The rule behind the calls is not given here.

D(3) dopamine receptor, sequence (P35462 whole entry): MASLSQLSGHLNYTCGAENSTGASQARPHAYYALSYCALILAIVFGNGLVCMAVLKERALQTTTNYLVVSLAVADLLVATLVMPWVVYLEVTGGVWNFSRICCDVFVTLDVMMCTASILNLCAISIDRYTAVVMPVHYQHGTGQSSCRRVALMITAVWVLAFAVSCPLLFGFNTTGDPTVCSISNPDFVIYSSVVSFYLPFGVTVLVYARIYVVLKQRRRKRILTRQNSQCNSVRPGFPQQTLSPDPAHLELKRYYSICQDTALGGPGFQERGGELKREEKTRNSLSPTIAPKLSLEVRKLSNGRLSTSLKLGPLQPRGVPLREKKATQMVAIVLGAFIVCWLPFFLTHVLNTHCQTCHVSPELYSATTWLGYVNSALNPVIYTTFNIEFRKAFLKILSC
T1 sequence (P14416 whole entry): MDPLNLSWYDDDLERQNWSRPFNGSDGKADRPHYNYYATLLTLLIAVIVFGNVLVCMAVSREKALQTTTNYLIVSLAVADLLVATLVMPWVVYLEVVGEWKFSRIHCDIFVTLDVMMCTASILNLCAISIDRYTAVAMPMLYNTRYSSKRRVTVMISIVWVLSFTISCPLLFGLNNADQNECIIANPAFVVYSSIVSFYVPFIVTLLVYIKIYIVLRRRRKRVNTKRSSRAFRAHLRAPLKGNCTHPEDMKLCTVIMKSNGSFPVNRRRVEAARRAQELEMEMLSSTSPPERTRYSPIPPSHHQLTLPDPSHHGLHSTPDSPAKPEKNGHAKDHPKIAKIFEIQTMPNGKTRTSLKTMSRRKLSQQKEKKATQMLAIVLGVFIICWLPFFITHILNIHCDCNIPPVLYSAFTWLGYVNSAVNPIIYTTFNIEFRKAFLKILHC
D(1B) dopamine receptor, sequence (P21918 whole entry): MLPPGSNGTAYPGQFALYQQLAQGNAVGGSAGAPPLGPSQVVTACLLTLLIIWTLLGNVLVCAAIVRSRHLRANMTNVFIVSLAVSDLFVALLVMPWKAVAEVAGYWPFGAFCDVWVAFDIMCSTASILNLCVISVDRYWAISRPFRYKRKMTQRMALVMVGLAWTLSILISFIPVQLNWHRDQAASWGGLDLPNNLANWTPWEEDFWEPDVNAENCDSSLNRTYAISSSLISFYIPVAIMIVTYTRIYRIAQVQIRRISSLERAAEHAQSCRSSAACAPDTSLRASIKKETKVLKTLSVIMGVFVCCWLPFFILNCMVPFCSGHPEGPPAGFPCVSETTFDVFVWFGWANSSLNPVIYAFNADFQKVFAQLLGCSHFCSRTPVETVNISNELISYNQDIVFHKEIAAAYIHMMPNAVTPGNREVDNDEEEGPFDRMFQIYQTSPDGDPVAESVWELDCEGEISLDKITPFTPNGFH
D(1A) dopamine receptor, sequence (P21728 whole entry): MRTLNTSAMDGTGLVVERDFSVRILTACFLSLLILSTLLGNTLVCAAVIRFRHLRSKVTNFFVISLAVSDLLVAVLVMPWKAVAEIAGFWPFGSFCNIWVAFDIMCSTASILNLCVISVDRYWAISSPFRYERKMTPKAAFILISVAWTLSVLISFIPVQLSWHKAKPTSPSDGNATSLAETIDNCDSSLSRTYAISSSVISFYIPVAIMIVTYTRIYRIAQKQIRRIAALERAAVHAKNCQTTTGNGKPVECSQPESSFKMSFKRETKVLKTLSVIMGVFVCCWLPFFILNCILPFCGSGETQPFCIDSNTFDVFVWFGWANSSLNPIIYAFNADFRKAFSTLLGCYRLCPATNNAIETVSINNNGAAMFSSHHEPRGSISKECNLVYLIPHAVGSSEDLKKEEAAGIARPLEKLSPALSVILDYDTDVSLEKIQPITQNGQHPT

`CCCN(CCN1CCN(Cc2cc3ccccc3[nH]2)CC1)c1ccc(OC)cc1`: the Ki (in general, the dissociation constant of the complex between target and ligand, obtained from inhibition or displacement) at D(2) dopamine receptor [1] was 520 nM; on D(3) dopamine receptor, 1300 nM.
As for `Brc1ccc(NCCN2CCN(Cc3cc4ccccc4[nH]3)CC2)cc1`, the Ki on D(2) dopamine receptor [1] was found to be 920 nM; at D(3) dopamine receptor it was 2300 nM.
For `CCCN(CCN1CCN(CCc2c[nH]c3ccccc23)CC1)c1ccc(OC)cc1`, in that order: 120 nM and 280 nM.
Turning to `CCCN(CCN1CCN(Cc2cc3ccccc3[nH]2)CC1)c1ccc(Br)cc1`, the Ki is 220 nM on D(2) dopamine receptor [1] and 600 nM on D(3) dopamine receptor.
In the same order, the values of `Brc1ccc(CNCCN2CCN(Cc3cc4ccccc4[nH]3)CC2)cc1` are 5200 nM and 1800 nM.
In the case of `CCCN(CCN1CCN(Cc2cc3ccccc3[nH]2)CC1)Cc1ccc(OC)cc1`, the Ki amounted to 4100 nM on D(2) dopamine receptor [1] and 4600 nM on D(3) dopamine receptor.
Take `CCCN(CCN1CCN(Cc2cc3ccccc3[nH]2)CC1)Cc1ccc(Br)cc1`: the Ki on D(2) dopamine receptor [1] came out at 920 nM; at D(3) dopamine receptor it was 930 nM.
In the same order, the values of `COc1ccc(NCCN2CCN(CCc3c[nH]c4ccccc34)CC2)cc1` are 430 nM and 620 nM.
As to `COc1ccc(NCCN2CCN(Cc3cc4ccccc4[nH]3)CC2)cc1`, the Ki on D(2) dopamine receptor [1] was found to be 7500 nM; at D(3) dopamine receptor it was 18000 nM.
For `COc1ccc(CNCCN2CCN(Cc3cc4ccccc4[nH]3)CC2)cc1`, in that order: 4000 nM and 4300 nM.
Regarding `CCCN(CCN1CCN(CCc2c[nH]c3ccccc23)CC1)c1ccc(Br)cc1`, the Ki on D(1B) dopamine receptor came to 1300 nM; at D(2) dopamine receptor [1], 58 nM; on D(1A) dopamine receptor, 250 nM; at D(3) dopamine receptor, 89 nM; on D(4) dopamine receptor it was 0.72 nM; at D(2) dopamine receptor [2], 51 nM. Moreover, the result on D(2) dopamine receptor [3] was Active.
For the compound `Brc1ccc(NCCN2CCN(CCc3c[nH]c4ccccc34)CC2)cc1`, the Ki worked out at 3600 nM on D(1B) dopamine receptor; 53 nM on D(2) dopamine receptor [1]; 480 nM at D(1A) dopamine receptor; 200 nM at D(3) dopamine receptor; 20 nM at D(4) dopamine receptor; 48 nM at D(2) dopamine receptor [2]. In addition, the result at D(2) dopamine receptor [3] was Active.

For the origin of these results see ChEMBL document CHEMBL3621057, “Multicomponent Synthesis and Biological Evaluation of a Piperazine-Based Dopamine Receptor Ligand Library” (ACS Med Chem Lett, 2015).
